Data published in ChEMBL document CHEMBL1201862, “PubChem BioAssay data set” (2004).
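96-well plates; 48 h exposure; 5 concentrations. Endpoints by linear interpolation between flanking doses. Not reached: highest tested concentration assigned. Here, GI50 denotes the concentration required for 50% inhibition of growth.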 Activity calls are given as the source filed them. No stated cut-off is given here; in the data, active = GI50 up to about 1.1 µM and inactive = higher.

How the values were obtained:
Test in all cases: DTP human tumour cell line panel, 48 h
[1] = tested on: T47D
[2] = tested on: SF-539
[3] = tested on: MCF7
[4] = tested on: MOLT-4
[5] = tested on: PC-3
[6] = tested on: HOP-62
[7] = tested on: OVCAR-3
[8] = tested on: MDA-N
[9] = tested on: COLO 205
[10] = tested on: UO-31
[11] = tested on: M14
[12] = tested on: BT-549
[13] = tested on: NCI-H226
[14] = tested on: 786-0
[15] = tested on: DU-145
[16] = tested on: OVCAR-5
[17] = tested on: HOP-92
[18] = tested on: NCI-H522
[19] = tested on: Malme-3M
[20] = tested on: Hs-578T

Measured: GI50

CCNC(=S)NNC(=O)c1csc(NC(=S)NC2CCCCC2)n1
inactive: [1] 11.7 µM | [2] 6.17 µM | [3] 4.69 µM | [4] 3.11 µM | [5] 17.4 µM | [6] 10.6 µM | [7] 3.25 µM | [8] 2.9 µM | [9] 8.53 µM | [10] 8.45 µM | [11] 11.6 µM | [12] 15.2 µM | [13] > 100 µM | [14] 6.52 µM | [15] 12.1 µM | [16] 26.9 µM

O=C1CC(O)c2c(Cl)sc(Cl)c21 (stereo not drawn)
inactive: [1] 5.89 µM | [2] 9.04 µM | [3] 5.45 µM | [4] 2.81 µM | [5] 13.3 µM | [17] 3.11 µM | [6] 14.1 µM | [7] 5.4 µM | [8] 9.33 µM | [9] 5.12 µM | [10] 6.49 µM | [11] 14.2 µM | [12] 16 µM | [13] 15.1 µM | [14] 4.14 µM | [15] 12.9 µM | [16] 17 µM

CN(C)CS/C(N)=N\C(O)C(Cl)(Cl)Cl (stereo not drawn)
inactive: [18] > 100 µM | [1] > 100 µM | [4] > 100 µM | [5] > 100 µM | [17] > 100 µM | [6] > 100 µM | [7] > 100 µM | [8] > 100 µM | [19] > 100 µM | [10] > 100 µM | [11] > 100 µM | [12] > 100 µM | [13] > 100 µM | [14] > 100 µM | [20] > 100 µM | [15] > 100 µM | [16] > 100 µM

COc1cccc2cc(C(N)=O)c(=N)oc12
inactive: [1] 37.3 µM | [2] 41.5 µM | [4] > 100 µM | [5] 65.3 µM | [17] 81.8 µM | [7] 36.9 µM | [8] 59.7 µM | [19] 19.2 µM | [9] 49.4 µM | [11] 46.6 µM | [12] > 100 µM | [13] 96.2 µM | [14] 31.7 µM | [20] 31.5 µM | [15] 92.5 µM | [16] 51.3 µM

N#C/N=C(/NCc1ccccc1)N(Cc1ccccc1)Cc1ccccc1
inactive: [18] 15.1 µM | [1] 35 µM | [2] 23.7 µM | [3] 36.1 µM | [4] 14.1 µM | [5] 28.2 µM | [17] 24.6 µM | [6] > 31.6 µM | [7] 22.6 µM | [8] 46.7 µM | [19] > 10 µM | [9] > 10 µM | [10] 16.4 µM | [11] 23.4 µM | [12] 61.4 µM | [13] 22.4 µM | [14] 23.2 µM | [15] 63 µM | [16] 29.9 µM

O/N=N/c1ccc2ccccc2n1
inactive: [18] > 100 µM | [1] > 100 µM | [2] > 100 µM | [3] > 100 µM | [4] > 100 µM | [5] > 100 µM | [6] > 100 µM | [7] > 100 µM | [8] > 100 µM | [9] > 10 µM | [10] > 100 µM | [11] > 100 µM | [12] > 100 µM | [13] > 100 µM | [14] > 100 µM | [20] > 100 µM | [15] > 100 µM | [16] > 100 µM
